Test results reported in BindingDB's records for doi:10.1016/j.bmcl.2009.04.039 (Johnson & Johnson Pharmaceutical Research & Development, 2009).

Biological target: T1, Signal transducer and activator of transcription 5A (Homo sapiens, UniProt P42229)
T1 sequence (P42229 whole entry): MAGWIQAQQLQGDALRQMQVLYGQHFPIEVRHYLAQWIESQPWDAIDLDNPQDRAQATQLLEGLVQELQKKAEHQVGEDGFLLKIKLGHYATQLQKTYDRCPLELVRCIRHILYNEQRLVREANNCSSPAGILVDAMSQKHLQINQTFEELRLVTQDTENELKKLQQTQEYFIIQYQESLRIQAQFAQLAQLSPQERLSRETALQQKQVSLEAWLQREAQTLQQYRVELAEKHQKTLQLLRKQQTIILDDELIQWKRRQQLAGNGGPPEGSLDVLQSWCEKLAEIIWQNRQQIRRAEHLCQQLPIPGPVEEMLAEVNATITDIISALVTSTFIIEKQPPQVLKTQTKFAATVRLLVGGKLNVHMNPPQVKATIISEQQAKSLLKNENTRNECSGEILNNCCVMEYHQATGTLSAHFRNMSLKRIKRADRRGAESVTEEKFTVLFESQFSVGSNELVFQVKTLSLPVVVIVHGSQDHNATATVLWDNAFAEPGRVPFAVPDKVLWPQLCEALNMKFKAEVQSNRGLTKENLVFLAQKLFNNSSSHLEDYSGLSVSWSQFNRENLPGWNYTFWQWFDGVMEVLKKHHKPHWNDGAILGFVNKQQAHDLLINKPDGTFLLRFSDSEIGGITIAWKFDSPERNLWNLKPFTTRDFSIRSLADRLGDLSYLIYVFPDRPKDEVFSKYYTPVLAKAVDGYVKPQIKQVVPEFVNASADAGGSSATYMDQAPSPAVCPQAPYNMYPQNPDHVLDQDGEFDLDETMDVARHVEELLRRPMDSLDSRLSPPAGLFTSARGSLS
Assay: Inhibition of STAT5 phosphorylation in IL2-stimulated healthy human T cells by Western blotting

- IC50: 0.689 µM
SMILES: O=C1NCc2c1c1c3ccccc3n3c1c1c2c2ccccc2n1C[C@@H](O)[C@@H](O)C3 [12,13-(2,3-Cis-dihyroxy-1,4-butyl)-6,7,12,13-tetrahydro-5-oxo-5H-indolo[2,3-a]pyrrolo[3,4-c]carbazole]
